Paper PMC10693550, “Programmable de novo designed coiled coil-mediated phase separation in mammalian cells” (Nature Communications, 2023)
No end group written: not given here.

Columns and labels:
FKBP/FRB [1] = test: Rapamycin-induced assembly of single-chain condensates from FKBP/FRB-fused APPAP halves, HEK293T cells; format: cell-based, H.sapiens; conditions: 1 μM rapamycin; HEK293T cells expressing Cit-APPAP-gs-FKBP and FRB-APPAP-gs; none with DMSO even 1 hour post-addition
Source text: (§1) Our final goal was to engineer new properties into condensates and to provide regulation of CC-LLPS assembly or disassembly. […] To introduce chemically regulated assembly, we incorporated FKBP into the first chain and FRB domain into the second chain of the split protein. Upon the addition of rapamycin, those two domains heterodimerize and thus extend the length of the polypeptide.
(§2) Fig. 6 Design of chemical regulation of CC-LLPS. a One polypeptide chain of a condensate-forming pair BFP-(S2)3(S4)3-gs, was separated into two chains, each with 3 CC domains BFP-(S2)3-gs and (S4)3-gs. […] Scale bars, 10 μm.

FKBP/FRB [2] = test: Rapamycin-induced condensate assembly, split two-chain system with FKBP and FRB domains, NIH-3T3 cells; format: cell-based, H.sapiens; conditions: 1 μM rapamycin; NIH-3T3 cells expressing Cit(S1-S3)3-SAH, BFP(S2)3-gsFKBP and FRB(S4)3-gs; none with vehicle control
Source text: as §1, §2

FKBP/FRB [3] = test: Rapamycin-regulated split TEVp protease dissolution of condensates, HEK293T cells; format: cell-based, H.sapiens; conditions: 1 μM rapamycin; HEK293T cells with TEVp site in one condensate-forming chain and rapamycin-regulated split TEVp
Source text: as §2

complementary peptide = test: Isothermal titration calorimetry (ITC) of orthogonal CC peptide pairs; format: binding; conditions: 50 mM Tris pH 7.5, 150 mM NaCl, 1 mM TCEP, uncertainty from Monte Carlo simulation of the fit
Procedure: MicroCal PEAQ-ITC (Malvern) was used to measure the equilibrium dissociation constant (Kd) of orthogonal CC pairs. A 40-µl injection syringe was filled with the peptide solution (1 mM P5f, P13f; 5.6 mM S1h or 5.4 mM S3h) in 50 mM Tris pH of 7.5, 150 mM NaCl, and 1 mM TCEP. The samples were injected into an ITC cell (volume 200 µl) filled with a complementary peptide (100 µM P6f or P14f and 560 µM S2h or 540 µM S4h) in a matching buffer through a 19-step process. The injection volumes were 2 µl and were spaced 120 s apart, except for the first priming injection of 0.4 µl with 150 s spacing. Raw thermograms were integrated with the software NITPIC[83], interaction analysis was done with SEDPHAT[84], and titration curves were visualized with a companion GUSSI software. Monte Carlo simulation for non-linear regression, aligning the model function with experimental values 1000 times was used to obtain uncertainties in the fitted model.
Supplementary Figure 2: Binding analysis between the weak 3-heptad and strong 4-heptad CC forming segment using isothermal titration calorimetry (ITC). a) For peptide pair S1h + S2h peptide concentration in 40 µl injection syringe was 5.6 mM for S1h and concentration of complementary peptide S2h in ITC cell (volume 200 µl) was 560 […]
concentration in 40 µl injection syringe was 5.4 mM S3h and concentration of complementary peptide S4h in ITC cell (volume 200 µl) was 540 µM.
± 0.5 kcal/mol. For peptide pair c) P5f + P6f and d) P13f + P14f, which are 4-heptad CC.
Peptide concentration in 40 µl injection syringe was 1 mM for P5f and P13f and concentration […]
± 0.5 µM and ΔH -13.7 +- 0.6 kcal/mol and d) Kd 2.3 ± 0.2 µM and ΔH -14.7 ± 0.6 kcal/mol.
All the peptides were dissolved in a matching buffer 50 mM Tris pH of 7.5, 150 mM NaCl, […]
(1 picture or pasted object on this page, not shown here)

S2h = biological target: T1, S2h; test: ITC; MicroCal PEAQ-ITC; syringe peptide (1 mM P5f, P13f; 5.6 mM S1h or 5.4 mM S3h) injected into the cell with the complementary peptide (100 µM P6f or P14f; 560 µM S2h or 540 µM S4h); 50 mM Tris pH 7.5, 150 mM NaCl, 1 mM TCEP; concentrations of the S peptides not stated; conditions: both partners purified
T1 chain: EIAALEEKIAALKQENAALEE

P14f = biological target: T2, P14f; test: as above; conditions: both partners purified
T2 chain: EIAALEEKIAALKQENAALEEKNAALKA

P6f = biological target: T3, P6f; test: as above; conditions: both partners purified
T3 chain: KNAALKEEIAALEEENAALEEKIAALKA

S4h = biological target: T4, S4h; test: as above; conditions: both partners purified
T4 chain: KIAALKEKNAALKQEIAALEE

[4] = 3-heptad Sh pairs, 5.6 mM S1h or 5.4 mM S3h in syringe into 560 µM S2h or 540 µM S4h in cell
[5] = 4-heptad pairs, 1 mM P5f or P13f in syringe into 100 µM P6f or P14f in cell

Q: Which “condensate formation after addition (in words)” value (FKBP/FRB [1]) does the source give for CO[C@H]1C[C@@H]2CC[C@@H](C)[C@@](O)(O2)C(=O)C(=O)N2CCCC[C@H]2C(=O)O[C@H]([C@H](C)C[C@@H]2CC[C@@H](O)[C@H](OC)C2)CC(=O)[C@H](C)/C=C(\C)[C@@H](O)[C@@H](OC)C(=O)[C@H](C)C[C@H](C)/C=C/C=C/C=C/1C [rapamycin, Rapamycin] here?
A: The value was “after a few minutes”.

Q: And the “time after addition at which condensates started to form” value (FKBP/FRB [2])?
A: Its value is 20 min.

Q: And the “dissolution of condensates after addition (in words)” value (FKBP/FRB [3])?
A: The value was “dissolution of condensates after a few minutes”.

Q: EIAALEEENAALEQKIAALKE [S3h-S4h] was tested. Which Kd (complementary peptide; [4]) did it give?
A: The Kd was 340 ± 70 µM.

Q: With ENAALEEKIAALKEKNAALKEEIAALEA [P5f-P6f] as the molecule, how does the Kd (complementary peptide; [5]) read?
A: Its Kd is 5.9 ± 0.5 µM.

Q: Which Kd (complementary peptide; [4]) does the source give for KIAALKEEIAALEQKNAALKE [S1h-S2h] here?
A: Its Kd is 2300 ± 1500 µM.

Q: “KIAALKEEIAALEQKNAALKEENAALEA [P13f-P14f]” was tested. Which Kd (complementary peptide; [5]) did it give?
A: The Kd was 2.3 ± 0.2 µM.

B1: S1h (peptide)
chain: KIAALKEEIAALEQKNAALKE
Q: Which Kd (S2h) does the source give for B1 here?
A: Its Kd is 2300 ± 1500 µM.

B2: P13f (peptide)
chain: KIAALKEEIAALEQKNAALKEENAALEA
Q: How did the Kd (P14f) turn out when B2 was run?
A: Its Kd is 2.3 ± 0.2 µM.

B3: P5f (peptide)
chain: ENAALEEKIAALKEKNAALKEEIAALEA
Q: How did the Kd (P6f) turn out when B3 was run?
A: The Kd was 5.9 ± 0.5 µM.

B4: S3h (peptide)
chain: EIAALEEENAALEQKIAALKE
Q: How did the Kd (S4h) turn out when B4 was run?
A: The Kd was 340 ± 70 µM.
